Experimental data from patent US12509431B2, “1,4-dihydroquinazolinone compounds and uses thereof” (Edgewise Therapeutics, Inc., priority 2022, dated 2025).

How the values were obtained:
Assay type in all cases: biochemical
Conditions in all cases: Table 8
[1] = test system: Rabbit Skeletal myofibrils (rabbit psoas muscle); assay: Myofibril ATPase assay (PK/LDH NADH-coupled), skeletal myofibrils
Method: (§1) Myofibril ATPase assays are known in the art to be useful in evaluating small molecules for the treatment of HCM and other cardiac indications. Myosin ATPase activity is assessed by using a coupled reaction system, in which ADP generated by the myosin ATPase function is coupled to the disappearance of NADH through the pyruvate kinase/lactate dehydrogenase (PK-LDH) system. ATPase activity produces ADP, which is used as a substrate for PK to produce pyruvate and regenerate ATP. The pyruvate is then used as a substrate by LDH to oxidize NADH to NAD+. The rate of the reaction is monitored through the time-dependent disappearance of NADH using absorbance at 340 nm, which, when the couple system is in stoichiometric excess, is directly correlated to the ATPase activity of the myosin. Inhibition of ATPase activity by the assayed compounds is indicated by a reduced rate of NADH loss, relative to vehicle-treated controls, over the experimental time window. Rabbit Skeletal and Porcine Ventricle are the primary sources of myofibril material.
(§2) Materials: The following stock solutions and reagents were used in the Myofibril ATPase Assay:
(§3) Stock Solutions of pCa buffer. Combine PIPES, CaCl2), and EGTA solutions with water. Adjust pH to 7.0 and bring final volume to 100 mL.
(§4) Buffer A & Buffer B. Prepare buffers A and B according to the table below.
(§5) Myofibril ATPase Assay Procedure: BSA, ATP, NADH, PEP, and DTT solutions were thawed at room temperature, then transferred to ice. Pellet-frozen myofibrils were transferred with approximately twice the required volume into a sufficiently large tube and capped. Myofibrils were thawed by rolling in a water bath for approximately 15 min at room temperature and cooled on ice. Buffers A and B were prepared by adjusting volumes as necessary for required number of wells and stored on ice. 0.5 μL of the compounds to be assayed were added into wells. 25 μL of Buffer A was dispensed into the wells, followed by 25 μL of Buffer B. The wells were measured for absorbance at 340 nm, using a kinetic protocol in which the wells are read every 1.5-2 min for 75 min. Assay data analysis was performed using a python script that filtered the raw data to retain those points falling between a starting and ending time and between a maximum and minimum absorbance, then used the filtered time-domain 340 nm absorbance data in each well to calculate a slope via linear regression analysis in units of mAU/min. Compound slopes were normalized between 100% and 0% activity, where 100% represented the slope of wells containing only compound vehicle, and fit to a 4-parameter logistic model. In addition to the fit parameters, the EC25% is calculated, relative to the 100% normalized value. In the case of inhibitors, EC50% is also calculated, if available. Fit parameters, calculated effective concentrations, filtered raw data, and calculated slopes were exported, in addition to compound-specific graphs of normalized ATPase activity versus concentration in μM.
Skeletal Myofibril Isolation:
Myofibrils from various animals and tissue types were acquired from a variety of sources: rabbit psoas muscle was purchased from Pel-Freez Biologicals (Rogers, AR) and porcine cardiac muscle was purchased from Exemplar Genetics. All myofibrils were prepared using a method based upon those described in Herrmann et al. (1993) and summarized here. Minced tissue was homogenized for 50 sec with a Polytron homogenizer into 10 volumes (relative to weight in grams) of Isolation Buffer A (50 mM Tris, pH 8.0, 0.1 M potassium acetate, 5 mM KCl, 2 mM DTT, 5 mM EDTA, 0.5% v/v Triton X-100) supplemented with 0.1 mM PMSF, 10 μM leupeptin, 5 μM pepstatin, and 0.5 mM sodium azide. The myofibrils were recovered by centrifugation (Beckman Allegra 6R, 1200 g, 10 min) and resuspended in 10 volumes Isolation Buffer B (Buffer A above without protease inhibitors or sodium azide). The myofibrils were further homogenized as before and recovered by centrifugation. […]

[2] = biological target: T1, Porcine Ventricle myofibrils (left ventricle of Yucatan minipigs) (Sus scrofa, UniProt P79293); assay: Myofibril ATPase assay (PK/LDH NADH-coupled), ventricle myofibrils
T1 construct: Myofibrils from porcine cardiac muscle was isolated from the left ventricle of Yucatan minipigs; tissue Exemplar Genetics; host or cells: left ventricle of Yucatan minipigs
Method: as §1, §2, §3, §4, §5
Cardiac Myofibril Isolation:
Myofibrils from porcine cardiac muscle was isolated from the left ventricle of Yucatan minipigs. Myofibrils were prepared using a method based upon those described in Herrmann et al. (1993) and summarized here. Minced tissue was homogenized for 50 sec with a Polytron homogenizer into 10 volumes (relative to weight in grams) of Isolation Buffer A (75 mM KCl, 10 mM Imidazole, 2 mM MgCl2, 2 mM EGTA, 1 mM NaN3, 1% v/v Triton X-100) supplemented with 4 mM Phosphocreatine, 1 mM ATP, 50 mM BDM, 1 mM DTT, 1 mM Benzamide HCl, 0.1 mM PMSF, 10 μM leupeptin, 5 μM pepstatin, and 10 mM EDTA. The myofibrils were recovered by centrifugation (Beckman Allegra 6R, 1200 g, 15 min) and resuspended in 10 volumes Isolation Buffer B (Buffer A above without supplemental reagents). The myofibrils were further homogenized described above and recovered by centrifugation for 7 mins. Cellular membranes and debris were removed by 3 washes in Isolation Buffer B, centrifuging each as before. […]

Porcine Atria myofibrils = assay: Myofibril ATPase assay (PK/LDH NADH-coupled), atria myofibrils
Method: as §5

T1 sequence (P79293 whole entry): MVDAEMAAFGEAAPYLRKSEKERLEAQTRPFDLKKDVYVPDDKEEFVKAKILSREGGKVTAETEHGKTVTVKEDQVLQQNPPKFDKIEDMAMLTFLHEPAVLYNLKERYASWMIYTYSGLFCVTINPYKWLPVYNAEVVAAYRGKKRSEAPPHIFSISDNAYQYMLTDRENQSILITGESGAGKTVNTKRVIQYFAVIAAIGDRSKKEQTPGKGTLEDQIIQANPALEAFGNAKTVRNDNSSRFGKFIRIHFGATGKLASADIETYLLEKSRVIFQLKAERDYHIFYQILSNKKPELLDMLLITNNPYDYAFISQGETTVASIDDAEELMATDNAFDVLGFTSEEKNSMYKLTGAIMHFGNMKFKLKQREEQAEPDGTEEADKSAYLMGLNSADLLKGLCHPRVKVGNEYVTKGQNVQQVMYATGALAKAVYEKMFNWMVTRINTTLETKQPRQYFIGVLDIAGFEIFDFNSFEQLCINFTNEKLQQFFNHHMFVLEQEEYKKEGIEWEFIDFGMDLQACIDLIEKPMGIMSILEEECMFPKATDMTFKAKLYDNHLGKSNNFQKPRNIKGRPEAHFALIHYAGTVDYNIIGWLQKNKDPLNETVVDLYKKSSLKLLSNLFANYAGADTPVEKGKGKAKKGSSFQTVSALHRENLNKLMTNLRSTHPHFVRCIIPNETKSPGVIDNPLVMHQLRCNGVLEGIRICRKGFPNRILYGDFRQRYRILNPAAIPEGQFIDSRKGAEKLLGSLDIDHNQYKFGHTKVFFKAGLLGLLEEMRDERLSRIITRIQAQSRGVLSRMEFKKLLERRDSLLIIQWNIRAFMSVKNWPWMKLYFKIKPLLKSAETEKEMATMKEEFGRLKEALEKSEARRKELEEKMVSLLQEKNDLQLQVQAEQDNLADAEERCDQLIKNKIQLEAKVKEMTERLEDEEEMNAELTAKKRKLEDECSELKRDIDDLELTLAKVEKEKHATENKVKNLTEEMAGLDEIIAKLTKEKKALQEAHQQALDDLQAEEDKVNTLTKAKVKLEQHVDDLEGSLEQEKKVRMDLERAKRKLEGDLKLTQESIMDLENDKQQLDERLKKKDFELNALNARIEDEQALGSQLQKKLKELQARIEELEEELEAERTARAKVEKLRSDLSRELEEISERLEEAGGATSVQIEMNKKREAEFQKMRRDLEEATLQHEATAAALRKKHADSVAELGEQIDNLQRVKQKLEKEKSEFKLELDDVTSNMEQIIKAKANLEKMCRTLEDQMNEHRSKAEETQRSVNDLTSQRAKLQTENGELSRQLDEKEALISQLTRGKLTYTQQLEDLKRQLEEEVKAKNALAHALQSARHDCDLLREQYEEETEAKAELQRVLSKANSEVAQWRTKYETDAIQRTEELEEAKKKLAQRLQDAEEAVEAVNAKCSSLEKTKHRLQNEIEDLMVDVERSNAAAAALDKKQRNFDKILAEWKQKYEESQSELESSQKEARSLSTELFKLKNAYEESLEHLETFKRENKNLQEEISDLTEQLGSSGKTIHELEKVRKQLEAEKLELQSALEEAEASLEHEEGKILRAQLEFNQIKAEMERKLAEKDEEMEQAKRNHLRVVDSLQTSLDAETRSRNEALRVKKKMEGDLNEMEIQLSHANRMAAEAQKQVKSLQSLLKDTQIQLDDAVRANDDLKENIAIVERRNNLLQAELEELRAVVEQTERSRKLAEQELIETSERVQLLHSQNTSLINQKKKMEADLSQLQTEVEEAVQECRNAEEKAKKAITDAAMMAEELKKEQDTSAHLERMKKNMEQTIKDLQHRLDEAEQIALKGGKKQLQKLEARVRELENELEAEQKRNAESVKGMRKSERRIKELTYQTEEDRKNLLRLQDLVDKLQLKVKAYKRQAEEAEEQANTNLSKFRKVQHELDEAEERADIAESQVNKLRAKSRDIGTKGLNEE

Row | Rabbit Psoas IC25 [1] [µM] | Porcine Ventricle IC25 [2] [µM] | Porcine Atria IC25 (Porcine Atria myofibrils) [µM] | Structure (SMILES)
1 | 0.7606 | 0.143 | 0.88 | Cc1cc(F)c2c(c1)NC(=O)N(CC(=O)N[C@H](C)c1ccc(C#N)cc1F)C2 [Compound B12]
2 | 0.0132 | 0.086 | 0.06 | Cc1cc(F)c2c(c1)NC(=O)N(CC(=O)N[C@@H](C)c1ccc(C#N)cc1F)C2 [Compound B13, N-[(1S)-1-(4-Cyano-2-fluorophenyl)ethyl]-2-(5-fluoro-7-methyl-2-oxo-1,4-dihydroquinazolin-3-yl)acetamide]
3 | 0.0934 | 0.0844 | 0.15 | CCc1cc(F)cnc1[C@@H](C)NC(=O)CN1Cc2c(ccc(F)c2F)NC1=O [Compound B14]
4 | 100 | 100 | 100.00 | CCc1cc(F)cnc1[C@H](C)NC(=O)CN1Cc2c(ccc(F)c2F)NC1=O [Compound B15]
5 | 1.205 | 1.057 | 0.23 | C[C@@H](NC(=O)CN1Cc2c(ccc(F)c2F)NC1=O)c1ccc(C#N)nn1 [Compound B16]
6 | 100 | 100 | 2.25 | O=C(CN1Cc2c(ccc(F)c2F)NC1=O)N[C@@H]1CS(=O)(=O)c2cc(F)cc(F)c21 [Compound B18]
7 | 100 | 100 | 100.00 | O=C(CN1Cc2c(ccc(F)c2F)NC1=O)N[C@H]1CS(=O)(=O)c2cc(F)cc(F)c21 [Compound B19]
8 | 100 | 100 | 100.00 | CC(C)c1cc(F)cnc1[C@@H](C)NC(=O)CN1Cc2c(ccc(F)c2F)NC1=O [Compound B20]
9 | 100 | 100 | 100.00 | CC(C)c1cc(F)cnc1[C@H](C)NC(=O)CN1Cc2c(ccc(F)c2F)NC1=O [Compound B21]
10 | 0.9012 | 6.451 | 10.83 | Cc1cc(C#N)nnc1[C@@H](C)NC(=O)CN1Cc2c(ccc(F)c2F)NC1=O [Compound B22]
11 | 30.61 | 100 | 100.00 | Cc1ccnnc1[C@@H](C)NC(=O)CN1Cc2c(ccc(F)c2F)NC1=O [Compound B24]
12 | 100 | 100 | 100.00 | C[C@@H](NC(=O)CN1Cc2cc(F)cc(C#N)c2NC1=O)c1ccc(C#N)cc1F [Compound B26]
13 | 0.5422 | 15.59 | 2.10 | C[C@H](NC(=O)CN1Cc2cc(F)cc(C#N)c2NC1=O)c1ccc(C#N)cc1F [Compound B27]
14 | 100 | 100 | 6.24 | C[C@@H](NC(=O)CN1Cc2cc(F)cc(F)c2NC1=O)c1ccc(C#N)cc1F [Compound B28]
15 | 0.1245 | 0.6824 | 0.11 | C[C@H](NC(=O)CN1Cc2cc(F)cc(F)c2NC1=O)c1ccc(C#N)cc1F [Compound B29]
16 | 100 | 100 | 0.07 | Cc1ccc2c(c1F)CN(CC(=O)N[C@H](C)c1ccc(C#N)cc1F)C(=O)N2 [Compound B30]
17 | 0.01 | 0.0421 | 0.02 | Cc1ccc2c(c1F)CN(CC(=O)N[C@@H](C)c1ccc(C#N)cc1F)C(=O)N2 [Compound B31, N-[(1S)-1-(4-cyano-2-fluorophenyl)ethyl]-2-(5-fluoro-6-methyl-2-oxo-1,4-dihydroquinazolin-3-yl)acetamide]
18 | 1.003 | 0.548 | 0.28 | C[C@@H](NC(=O)CN1Cc2c(F)cc(Cl)cc2NC1=O)c1ccc(C#N)cc1F [Compound B32]
19 | 0.0093 | 0.0667 | 0.02 | C[C@H](NC(=O)CN1Cc2c(F)cc(Cl)cc2NC1=O)c1ccc(C#N)cc1F [Compound B33, 2-(7-Chloro-5-fluoro-2-oxo-1,4-dihydroquinazolin-3-yl)-N-[(1S)-1-(4-cyano-2-fluorophenyl)ethyl]acetamide]
20 | 100 | 3.618 | 0.16 | Cc1cc([C@@H](C)NC(=O)CN2Cc3c(ccc(F)c3F)NC2=O)ncc1C#N [Compound B34]
21 | 0.0105 | 0.0148 | 0.02 | C[C@@H](NC(=O)CN1Cc2c(ccc(F)c2F)NC1=O)c1ncc(F)cc1Cl [Compound B36]
22 | 0.3844 | 0.4901 | 0.28 | C[C@H](NC(=O)CN1Cc2c(ccc(F)c2F)NC1=O)c1ncc(F)cc1Cl [Compound B37]
23 | 10.64 | 3.82 | 0.98 | Cc1cc(F)cnc1[C@@H](C)NC(=O)CN1Cc2c(ccc(F)c2F)NC1=O [Compound B38]
24 | 0.0203 | 0.0483 | 0.02 | Cc1cc(F)cnc1[C@H](C)NC(=O)CN1Cc2c(ccc(F)c2F)NC1=O [Compound B39]
25 | 100 | 17.72 | 100.00 | C[C@@H](NC(=O)CN1Cc2cc(F)cc(Cl)c2NC1=O)c1ccc(C#N)cc1F [Compound B40]
26 | 0.0857 | 1.384 | 1.74 | C[C@H](NC(=O)CN1Cc2cc(F)cc(Cl)c2NC1=O)c1ccc(C#N)cc1F [Compound B41]
27 | 0.7455 | 3.177 | 0.59 | C[C@@H](NC(=O)CN1Cc2c(F)cc(F)cc2NC1=O)c1ccc(C#N)cc1F [Compound B42]
28 | 0.0158 | 0.0473 | 0.04 | C[C@H](NC(=O)CN1Cc2c(F)cc(F)cc2NC1=O)c1ccc(C#N)cc1F [Compound B43]
29 | 4.901 | 0.5278 | 0.45 | C[C@@H](NC(=O)CN1Cc2cc(F)c(F)cc2NC1=O)c1ccc(C#N)cc1F [Compound B44]
